Here are results for 37 compounds from ChEMBL document CHEMBL4680228 (Eur J Med Chem, 2020).

What is called IC50 is the concentration that inhibits the measured activity by half. The term DC50 denotes the concentration at which degradation of the target reaches its halfway point.

One assay deals with SR. Kind of assay: Antiproliferative activity against human SR cells assessed as reduction in cell growth. It counts as functional, cell-based.
In assay [1] the target is NPM/ALK (Nucleophosmin/ALK tyrosine kinase receptor) (Homo sapiens) (UniProt Q9UM73+P06748). Kind of assay: Induction of NPM-ALK fusion protein degradation in human SR cells. The format is cell-based.
Chain of NPM/ALK (Nucleophosmin/ALK tyrosine kinase receptor) (Homo sapiens) (P06748 whole entry partner, the tested form may be a part): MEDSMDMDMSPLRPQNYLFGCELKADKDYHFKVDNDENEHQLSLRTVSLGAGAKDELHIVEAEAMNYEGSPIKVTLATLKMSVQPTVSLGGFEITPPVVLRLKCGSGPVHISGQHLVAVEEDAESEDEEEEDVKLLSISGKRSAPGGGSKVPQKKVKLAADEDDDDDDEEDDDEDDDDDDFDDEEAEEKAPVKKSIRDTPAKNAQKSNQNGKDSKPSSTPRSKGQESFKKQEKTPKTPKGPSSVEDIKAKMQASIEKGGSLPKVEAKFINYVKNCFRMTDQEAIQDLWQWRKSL
Chain of NPM/ALK (Nucleophosmin/ALK tyrosine kinase receptor) (Homo sapiens) (Q9UM73 19-1620 limits assumed): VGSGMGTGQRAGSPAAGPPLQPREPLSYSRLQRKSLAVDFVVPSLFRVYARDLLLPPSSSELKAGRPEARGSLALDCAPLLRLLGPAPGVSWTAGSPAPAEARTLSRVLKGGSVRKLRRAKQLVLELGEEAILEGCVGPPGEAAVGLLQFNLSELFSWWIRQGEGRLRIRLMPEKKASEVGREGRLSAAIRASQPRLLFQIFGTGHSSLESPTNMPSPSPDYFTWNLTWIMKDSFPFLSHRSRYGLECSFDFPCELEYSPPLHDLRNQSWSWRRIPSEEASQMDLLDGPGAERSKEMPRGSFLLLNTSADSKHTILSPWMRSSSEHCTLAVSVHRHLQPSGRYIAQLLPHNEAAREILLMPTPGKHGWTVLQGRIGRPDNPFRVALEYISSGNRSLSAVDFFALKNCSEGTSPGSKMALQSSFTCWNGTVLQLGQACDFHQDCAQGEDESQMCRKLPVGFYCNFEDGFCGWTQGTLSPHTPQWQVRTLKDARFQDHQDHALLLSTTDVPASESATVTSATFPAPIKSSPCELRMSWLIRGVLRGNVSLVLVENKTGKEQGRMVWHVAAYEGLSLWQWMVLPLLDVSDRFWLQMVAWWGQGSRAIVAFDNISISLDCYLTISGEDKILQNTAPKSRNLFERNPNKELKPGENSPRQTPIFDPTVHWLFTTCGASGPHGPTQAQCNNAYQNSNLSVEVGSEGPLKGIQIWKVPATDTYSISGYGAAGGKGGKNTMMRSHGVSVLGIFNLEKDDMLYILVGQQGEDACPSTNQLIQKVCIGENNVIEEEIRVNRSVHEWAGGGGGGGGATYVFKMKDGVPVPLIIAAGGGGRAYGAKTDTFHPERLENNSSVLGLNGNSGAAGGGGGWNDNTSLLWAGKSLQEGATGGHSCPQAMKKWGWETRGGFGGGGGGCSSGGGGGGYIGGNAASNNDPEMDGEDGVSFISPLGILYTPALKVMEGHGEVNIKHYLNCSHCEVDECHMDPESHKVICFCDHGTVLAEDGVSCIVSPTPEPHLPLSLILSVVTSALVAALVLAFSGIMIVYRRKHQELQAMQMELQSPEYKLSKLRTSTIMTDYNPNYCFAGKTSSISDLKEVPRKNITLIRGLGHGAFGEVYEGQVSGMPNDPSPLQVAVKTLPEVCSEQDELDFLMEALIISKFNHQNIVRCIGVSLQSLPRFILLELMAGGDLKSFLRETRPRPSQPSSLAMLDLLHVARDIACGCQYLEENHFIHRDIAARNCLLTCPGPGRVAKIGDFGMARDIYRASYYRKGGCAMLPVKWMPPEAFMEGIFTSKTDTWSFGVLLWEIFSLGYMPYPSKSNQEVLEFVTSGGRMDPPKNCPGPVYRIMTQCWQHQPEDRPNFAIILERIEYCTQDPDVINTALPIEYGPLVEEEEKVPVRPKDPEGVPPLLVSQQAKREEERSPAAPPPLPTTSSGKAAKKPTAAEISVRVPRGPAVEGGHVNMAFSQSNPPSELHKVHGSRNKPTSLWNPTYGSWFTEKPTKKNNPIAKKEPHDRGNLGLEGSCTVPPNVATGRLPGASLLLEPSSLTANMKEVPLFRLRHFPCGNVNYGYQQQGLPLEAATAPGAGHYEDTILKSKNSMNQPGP
For assay [2], the target named is von Hippel-Lindau disease tumor suppressor/ALK tyrosine kinase receptor/Nucleophosmin (Homo sapiens, UniProt Q9UM73+P06748+P40337). Nature of the assay: Protac activity at VHL/NPM-ALK fusion protein in human SR cells assessed as degradation of ALK. It counts as cell-based.
Chain of von Hippel-Lindau disease tumor suppressor/ALK tyrosine kinase receptor/Nucleophosmin (Q9UM73 whole entry, the tested form may be a part): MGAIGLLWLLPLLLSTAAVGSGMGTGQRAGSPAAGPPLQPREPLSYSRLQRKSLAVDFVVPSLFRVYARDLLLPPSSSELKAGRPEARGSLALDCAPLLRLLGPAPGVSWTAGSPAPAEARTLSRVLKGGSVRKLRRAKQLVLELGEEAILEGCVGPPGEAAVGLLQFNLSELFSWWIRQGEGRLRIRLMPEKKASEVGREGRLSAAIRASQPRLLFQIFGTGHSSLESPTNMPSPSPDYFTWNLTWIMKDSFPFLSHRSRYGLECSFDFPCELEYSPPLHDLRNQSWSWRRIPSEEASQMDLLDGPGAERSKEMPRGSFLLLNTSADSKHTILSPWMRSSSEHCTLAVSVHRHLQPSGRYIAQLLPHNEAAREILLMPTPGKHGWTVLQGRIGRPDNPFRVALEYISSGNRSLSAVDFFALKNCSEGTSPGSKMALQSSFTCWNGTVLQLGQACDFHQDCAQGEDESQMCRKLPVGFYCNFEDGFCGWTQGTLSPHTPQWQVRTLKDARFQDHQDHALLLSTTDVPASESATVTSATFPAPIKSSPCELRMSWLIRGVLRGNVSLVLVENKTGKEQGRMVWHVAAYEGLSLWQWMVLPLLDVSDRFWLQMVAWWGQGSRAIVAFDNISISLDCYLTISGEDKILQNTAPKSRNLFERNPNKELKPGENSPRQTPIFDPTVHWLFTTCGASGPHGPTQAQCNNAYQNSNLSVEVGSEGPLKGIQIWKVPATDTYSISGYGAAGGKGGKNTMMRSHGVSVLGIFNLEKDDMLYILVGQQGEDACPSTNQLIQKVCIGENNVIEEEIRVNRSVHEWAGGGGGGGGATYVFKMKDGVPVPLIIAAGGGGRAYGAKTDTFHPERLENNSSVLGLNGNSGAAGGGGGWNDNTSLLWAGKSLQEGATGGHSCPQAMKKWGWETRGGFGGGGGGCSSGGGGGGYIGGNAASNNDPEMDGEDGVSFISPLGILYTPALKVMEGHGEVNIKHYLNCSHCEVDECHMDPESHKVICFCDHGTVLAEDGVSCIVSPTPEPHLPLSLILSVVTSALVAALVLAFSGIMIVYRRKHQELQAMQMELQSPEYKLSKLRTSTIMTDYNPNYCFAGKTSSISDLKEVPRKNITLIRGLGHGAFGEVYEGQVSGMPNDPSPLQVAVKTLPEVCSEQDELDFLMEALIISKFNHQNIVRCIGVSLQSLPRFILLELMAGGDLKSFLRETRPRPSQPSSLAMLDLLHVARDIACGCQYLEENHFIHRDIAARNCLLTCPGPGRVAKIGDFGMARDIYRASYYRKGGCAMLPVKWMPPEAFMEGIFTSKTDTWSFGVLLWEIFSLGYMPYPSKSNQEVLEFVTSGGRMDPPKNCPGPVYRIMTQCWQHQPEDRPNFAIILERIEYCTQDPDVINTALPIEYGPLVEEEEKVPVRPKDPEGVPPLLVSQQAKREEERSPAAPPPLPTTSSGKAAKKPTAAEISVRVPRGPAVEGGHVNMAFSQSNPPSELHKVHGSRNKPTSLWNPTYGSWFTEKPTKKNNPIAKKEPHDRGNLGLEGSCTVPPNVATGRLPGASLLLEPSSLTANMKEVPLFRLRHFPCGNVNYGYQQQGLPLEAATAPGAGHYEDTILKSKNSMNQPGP
Chain of von Hippel-Lindau disease tumor suppressor/ALK tyrosine kinase receptor/Nucleophosmin (P06748 whole entry, the tested form may be a part): as the sequence (P06748 whole entry partner, the tested form may be a part) above
Chain of von Hippel-Lindau disease tumor suppressor/ALK tyrosine kinase receptor/Nucleophosmin (P40337 whole entry, the tested form may be a part): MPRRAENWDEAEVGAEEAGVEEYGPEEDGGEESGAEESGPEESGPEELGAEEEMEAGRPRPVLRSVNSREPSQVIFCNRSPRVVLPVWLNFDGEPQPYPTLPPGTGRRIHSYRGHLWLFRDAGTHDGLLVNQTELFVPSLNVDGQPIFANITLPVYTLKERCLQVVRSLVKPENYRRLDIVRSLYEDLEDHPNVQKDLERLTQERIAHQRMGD
In the next assay the test system is NCI-H69. Kind of assay: Antiproliferative activity against human NCI-H69 cells assessed as inhibition of cell proliferation. The format is functional, cell-based.
Another assay can be described thus: cells. To be noted: Homo sapiens, NCI-H1688.

The source made the active and inactive calls. The rule behind the calls is not given here.

Description for cells: Antiproliferative activity against human NCI-H1688 cells assessed as inhibition of cell proliferation

Turning to `COc1cc(N2CCN(C(=O)CCCCC(=O)N[C@H](C(=O)N3C[C@H](O)C[C@H]3C(=O)NCc3ccc(-c4scnc4C)cc3)C(C)(C)C)CC2)ccc1Nc1ncc(Cl)c(Nc2ccccc2P(C)(C)=O)n1`, the result with SR was Active.
In the case of `COc1cc(N2CCC(N)CC2)ccc1Nc1ncc(Cl)c(Nc2ccccc2P(C)(C)=O)n1`, in the assay with SR, the IC50 came out at 1.7 nM. Besides, the outcome in assay [1] was inactive.
As for `COc1cc(N2CCC(NC(=O)CCOCCOCCOCCC(=O)N[C@H](C(=O)N3C[C@H](O)C[C@H]3C(=O)NCc3ccc(-c4scnc4C)cc3)C(C)(C)C)CC2)ccc1Nc1ncc(Cl)c(Nc2ccccc2P(C)(C)=O)n1`, in the assay on SR, the outcome was inactive.
Same read-out and setting: then `COc1cc(N2CCC(N3CCN(C(=O)CCCCC(=O)N[C@H](C(=O)N4C[C@H](O)C[C@H]4C(=O)NCc4ccc(-c5scnc5C)cc4)C(C)(C)C)CC3)CC2)ccc1Nc1ncc(Cl)c(Nc2ccccc2P(C)(C)=O)n1`, with “Active”.
`COc1cc(N2CCN(C(=O)CCCCCCC(=O)N[C@H](C(=O)N3C[C@H](O)C[C@H]3C(=O)NCc3ccc(-c4scnc4C)cc3)C(C)(C)C)CC2)ccc1Nc1ncc(Cl)c(Nc2ccccc2P(C)(C)=O)n1`: in assay [2], the DC50 is over 50 nM. Also, the outcome with SR was Active.
In the case of `COc1cc(N2CCC(NC(=O)CCCC(=O)N[C@H](C(=O)N3C[C@H](O)C[C@H]3C(=O)NCc3ccc(-c4scnc4C)cc3)C(C)(C)C)CC2)ccc1Nc1ncc(Cl)c(Nc2ccccc2P(C)(C)=O)n1`, in the assay on SR, the result was Active.
For the compound `COc1cc(N2CCN(C(=O)CCC(=O)N[C@H](C(=O)N3C[C@H](O)C[C@H]3C(=O)NCc3ccc(-c4scnc4C)cc3)C(C)(C)C)CC2)ccc1Nc1ncc(Cl)c(Nc2ccccc2P(C)(C)=O)n1`, the outcome in the assay on SR was Active.
In the case of `COc1cc(N2CCC(NC(=O)CCCCCCC(=O)N[C@H](C(=O)N3C[C@H](O)C[C@H]3C(=O)NCc3ccc(-c4scnc4C)cc3)C(C)(C)C)CC2)ccc1Nc1ncc(Cl)c(Nc2ccccc2P(C)(C)=O)n1`, the DC50 in assay [2] was found to be 9.1 nM. The outcome in the assay on SR was Active.
`COc1cc(N2CCC(NC(=O)CCOCCOCCC(=O)N[C@H](C(=O)N3C[C@H](O)C[C@H]3C(=O)NCc3ccc(-c4scnc4C)cc3)C(C)(C)C)CC2)ccc1Nc1ncc(Cl)c(Nc2ccccc2P(C)(C)=O)n1`: the outcome in the assay on SR was inactive.
Take `COc1cc(N2CCC(N3CCN(C(=O)CCCCCCCCC(=O)N[C@H](C(=O)N4C[C@H](O)C[C@H]4C(=O)NCc4ccc(-c5scnc5C)cc4)C(C)(C)C)CC3)CC2)ccc1Nc1ncc(Cl)c(Nc2ccccc2P(C)(C)=O)n1`: the DC50 in assay [2] is 7.5 nM. The outcome in the assay with SR was Active.
As to `COc1cc(N2CCN(C(=O)CCOCCOCCOCCC(=O)N[C@H](C(=O)N3C[C@H](O)C[C@H]3C(=O)NCc3ccc(-c4scnc4C)cc3)C(C)(C)C)CC2)ccc1Nc1ncc(Cl)c(Nc2ccccc2P(C)(C)=O)n1`, the result in the assay with SR was inactive.
For `COc1cc(N2CCN(C(=O)CCCCCCCC(=O)N[C@H](C(=O)N3C[C@H](O)C[C@H]3C(=O)NCc3ccc(-c4scnc4C)cc3)C(C)(C)C)CC2)ccc1Nc1ncc(Cl)c(Nc2ccccc2P(C)(C)=O)n1`, the half-maximal degradation concentration (DC50) in assay [2] was 15 nM. Also, the outcome in the assay on SR was Active.
As to `COc1cc(N2CCNCC2)ccc1Nc1ncc(Cl)c(Nc2ccccc2P(C)(C)=O)n1`, the IC50 in the assay on SR is 1.6 nM.
As to `COc1cc(N2CCC(N3CCN(C(=O)CCCCCCC(=O)N[C@H](C(=O)N4C[C@H](O)C[C@H]4C(=O)NCc4ccc(-c5scnc5C)cc4)C(C)(C)C)CC3)CC2)ccc1Nc1ncc(Cl)c(Nc2ccccc2P(C)(C)=O)n1`, the DC50 in assay [2] turned out to be 11.4 nM. In addition, the result in the assay on SR was Active.
As for `COc1cc(N2CCC(NC(=O)CCCCCC(=O)N[C@H](C(=O)N3C[C@H](O)C[C@H]3C(=O)NCc3ccc(-c4scnc4C)cc3)C(C)(C)C)CC2)ccc1Nc1ncc(Cl)c(Nc2ccccc2P(C)(C)=O)n1`, the outcome with SR was Active.
The same measure, in the same setting: in the case of `COc1cc(N2CCN(C(=O)CCOCCOCCOCCOCCC(=O)N[C@H](C(=O)N3C[C@H](O)C[C@H]3C(=O)NCc3ccc(-c4scnc4C)cc3)C(C)(C)C)CC2)ccc1Nc1ncc(Cl)c(Nc2ccccc2P(C)(C)=O)n1` it was “inactive”; in that of `COc1cc(N2CCN(C(=O)CCOCCOCCOCCOCCOCCC(=O)N[C@H](C(=O)N3C[C@H](O)C[C@H]3C(=O)NCc3ccc(-c4scnc4C)cc3)C(C)(C)C)CC2)ccc1Nc1ncc(Cl)c(Nc2ccccc2P(C)(C)=O)n1`, “inactive”.
The same measure, in the same setting: in the case of `COc1cc(N2CCN(C(=O)CCOCCOCCC(=O)N[C@H](C(=O)N3C[C@H](O)C[C@H]3C(=O)NCc3ccc(-c4scnc4C)cc3)C(C)(C)C)CC2)ccc1Nc1ncc(Cl)c(Nc2ccccc2P(C)(C)=O)n1` it was “inactive”; in that of `COc1cc(N2CCN(C(=O)CCCC(=O)N[C@H](C(=O)N3C[C@H](O)C[C@H]3C(=O)NCc3ccc(-c4scnc4C)cc3)C(C)(C)C)CC2)ccc1Nc1ncc(Cl)c(Nc2ccccc2P(C)(C)=O)n1`, “Active”.
For `COc1cc(N2CCC(N3CCN(C(=O)CCCCCCCC(=O)N[C@H](C(=O)N4C[C@H](O)C[C@H]4C(=O)NCc4ccc(-c5scnc5C)cc4)C(C)(C)C)CC3)CC2)ccc1Nc1ncc(Cl)c(Nc2ccccc2P(C)(C)=O)n1`, the DC50 in assay [2] is 25.1 nM. Further, the result in the assay with SR was Active.
On to `COc1cc(N2CCN(C(=O)CCCCCC(=O)N[C@H](C(=O)N3C[C@H](O)C[C@H]3C(=O)NCc3ccc(-c4scnc4C)cc3)C(C)(C)C)CC2)ccc1Nc1ncc(Cl)c(Nc2ccccc2P(C)(C)=O)n1`, for which the outcome in the assay with SR was Active.
On the same count and under the same terms, then `COc1cc(N2CCC(N3CCN(C(=O)CCOCCOCCOCCC(=O)N[C@H](C(=O)N4C[C@H](O)C[C@H]4C(=O)NCc4ccc(-c5scnc5C)cc4)C(C)(C)C)CC3)CC2)ccc1Nc1ncc(Cl)c(Nc2ccccc2P(C)(C)=O)n1`, with “inactive”; and `COc1cc(N2CCC(N3CCN(C(=O)CCC(=O)N[C@H](C(=O)N4C[C@H](O)C[C@H]4C(=O)NCc4ccc(-c5scnc5C)cc4)C(C)(C)C)CC3)CC2)ccc1Nc1ncc(Cl)c(Nc2ccccc2P(C)(C)=O)n1`, with “Active”.
Regarding `COc1cc(N2CCC(NC(=O)CCOCCOCCOCCOCCOCCC(=O)N[C@H](C(=O)N3C[C@H](O)C[C@H]3C(=O)NCc3ccc(-c4scnc4C)cc3)C(C)(C)C)CC2)ccc1Nc1ncc(Cl)c(Nc2ccccc2P(C)(C)=O)n1`, in the assay on SR, the result was inactive.
On the same count and under the same terms, in the case of `COc1cc(N2CCC(N3CCN(C(=O)CCOCCOCCOCCOCCC(=O)N[C@H](C(=O)N4C[C@H](O)C[C@H]4C(=O)NCc4ccc(-c5scnc5C)cc4)C(C)(C)C)CC3)CC2)ccc1Nc1ncc(Cl)c(Nc2ccccc2P(C)(C)=O)n1` it was “inactive”; in that of `COc1cc(N2CCC(N3CCN(C(=O)CCOCCOCCC(=O)N[C@H](C(=O)N4C[C@H](O)C[C@H]4C(=O)NCc4ccc(-c5scnc5C)cc4)C(C)(C)C)CC3)CC2)ccc1Nc1ncc(Cl)c(Nc2ccccc2P(C)(C)=O)n1`, “inactive”.
Still for that read-out and setting: in the case of `COc1cc(N2CCC(N3CCN(C(=O)CCOCCOCCOCCOCCOCCC(=O)N[C@H](C(=O)N4C[C@H](O)C[C@H]4C(=O)NCc4ccc(-c5scnc5C)cc4)C(C)(C)C)CC3)CC2)ccc1Nc1ncc(Cl)c(Nc2ccccc2P(C)(C)=O)n1` it was “inactive”.
Same read-out and setting: then `COc1cc(N2CCC(NC(=O)CCOCCOCCOCCOCCC(=O)N[C@H](C(=O)N3C[C@H](O)C[C@H]3C(=O)NCc3ccc(-c4scnc4C)cc3)C(C)(C)C)CC2)ccc1Nc1ncc(Cl)c(Nc2ccccc2P(C)(C)=O)n1`, with “inactive”.
Turning to `COc1cc(N2CCC(NC(=O)CCCCCCCCC(=O)N[C@H](C(=O)N3C[C@H](O)C[C@H]3C(=O)NCc3ccc(-c4scnc4C)cc3)C(C)(C)C)CC2)ccc1Nc1ncc(Cl)c(Nc2ccccc2P(C)(C)=O)n1`, in assay [2], the DC50 came to 7.2 nM. For the same compound, the outcome in the assay with SR was Active.
With `COc1cc(N2CCC(NC(=O)CCCCCCCC(=O)N[C@H](C(=O)N3C[C@H](O)C[C@H]3C(=O)NCc3ccc(-c4scnc4C)cc3)C(C)(C)C)CC2)ccc1Nc1ncc(Cl)c(Nc2ccccc2P(C)(C)=O)n1`, the DC50 in assay [2] turned out to be 20.9 nM. In addition, in the assay with SR, the outcome was Active.
As for `COc1cc(N2CCC(NC(=O)CCC(=O)N[C@H](C(=O)N3C[C@H](O)C[C@H]3C(=O)NCc3ccc(-c4scnc4C)cc3)C(C)(C)C)CC2)ccc1Nc1ncc(Cl)c(Nc2ccccc2P(C)(C)=O)n1`, the outcome in the assay with SR was Active.
Regarding `Cc1ncsc1-c1ccc(CNC(=O)[C@@H]2C[C@@H](O)CN2C(=O)[C@@H](NC(=O)CCCCCCCCCC(=O)O)C(C)(C)C)cc1`, the IC50 was over 40000 nM with NCI-H69 and over 45000 nM in “cells”.
With `COc1cc(N2CCC(N3CCN(C(=O)CCCCCC(=O)N[C@H](C(=O)N4C[C@H](O)C[C@H]4C(=O)NCc4ccc(-c5scnc5C)cc4)C(C)(C)C)CC3)CC2)ccc1Nc1ncc(Cl)c(Nc2ccccc2P(C)(C)=O)n1`, in the assay on SR, the outcome was Active.
Take `COc1cc(N2CCC(NC(=O)CCCCC(=O)N[C@H](C(=O)N3C[C@H](O)C[C@H]3C(=O)NCc3ccc(-c4scnc4C)cc3)C(C)(C)C)CC2)ccc1Nc1ncc(Cl)c(Nc2ccccc2P(C)(C)=O)n1`: the result in the assay on SR was Active.
Same read-out and setting: then `COc1cc(N2CCC(N3CCN(C(=O)CCCC(=O)N[C@H](C(=O)N4C[C@H](O)C[C@H]4C(=O)NCc4ccc(-c5scnc5C)cc4)C(C)(C)C)CC3)CC2)ccc1Nc1ncc(Cl)c(Nc2ccccc2P(C)(C)=O)n1`, with “Active”.
Turning to `COc1cc(N2CCC(N3CCNCC3)CC2)ccc1Nc1ncc(Cl)c(Nc2ccccc2P(C)(C)=O)n1`, in the assay with SR, the IC50 came to 6.8 nM. Besides, in assay [1], the result was inactive.
For the compound `COc1cc(N2CCN(C(=O)CCCCCCCCC(=O)N[C@H](C(=O)N3C[C@H](O)C[C@H]3C(=O)NCc3ccc(-c4scnc4C)cc3)C(C)(C)C)CC2)ccc1Nc1ncc(Cl)c(Nc2ccccc2P(C)(C)=O)n1`, the DC50 in assay [2] was over 50 nM. Besides, the result with SR was Active.
